7 compounds from patent publication US20150175599A1, “FAAH Inhibitors” (Ironwood Pharmaceuticals, Inc., priority 2010, published 2015) can be followed below.

The nature of the data set: Pharmacokinetic study, plasma level 2 hours after oral dosing in rats. The data set is classed as in vivo. Here is the method: Pharmacokinetic studies were conducted to determine absorption and distribution profiles of the disclosed compounds which were orally administered to rats.
Compounds were formulated in a 1% DMA/99% Vitamin E TPGS vehicle. Prepared compounds were dosed via oral gavage (PO). Following the appropriate pretreatment time of 2 hours, rats were anesthetized with isoflurane gas. Blood was collected into tubes containing EDTA via retro-orbital eye bleed. Whole blood was spun in a micro-centrifuge at approximately 13,000 rpm for 5 minutes at room temperature. Separated plasma was subsequently aliquoted into eppendorf tubes. Samples were stored at −80° C. until prepped for analysis.
Plasma samples were thawed and the required amount of plasma for standards, blanks and dilutions were made. The dilutions were prepared before plating. Preparation of crash solution included cold acetonitrile+0.1% formic acid and 25 ng/mL of a FAAH inhibitor used as internal standard. solvent standards of the FAAH inhibitor being studied were preparation at 10, 30, 100, 300, 1000, 3000, 10000, 30000, 100000, and 300000 ng/mL in DMSO. Then a plasma standard curve was generated from the solvent standards (final concentrations of standards in plasma were: 0.1, 0.3, 1, 3, 10, 30, 100, 300, 1000, 3000 ng/mL). 50 μL of each plasma sample/dilution, standard, or blank was transferred into 96-well plates. To each well, 200 μL of cold crash solution was added. The plate was covered and gently vortexed. The plate was centrifuged at 3500 rpm, 4° C. for 10 min. 200 μL of each supernatant was transferred into new plates. The plates were dried under nitrogen in a TurboVap at 55° C. The sample in each well was re-suspended with 100 μL of 30% acetonitrile, covered and vortexed gently. The well solutions were analyzed by the LC/MS/MS conditions and specifications below.
HPLC column was a Clipeus C8, 2.1×30 mm, 5 μm, with Basic 8 guard column using 20 μL injections. Mobile phase used was mobile phase A: 0.1% Formic Acid in water and mobile phase B: 0.1% Formic Acid in 85:10:5 ACN:IPA:H2O. The flow rate for the run was 0.5 mL/min and the gradient for the 4 minute total run time was: 0.0 minutes
For the compound `COc1cc(NC(=O)C(=O)c2c(C)n(Cc3ccc(Cl)cn3)c3ncc(C)cc23)ccn1` [Compound 75, (1-((5-chloropyridin-2-yl)methyl)-2,5-dimethyl-1H-pyrrolo[2,3-b]pyridin-3-yl)-N-(2-methoxypyridin-4-yl)-2-oxoacetamide], the “2 hr plasma level-ng/mL (rat, 10 mg/kg PO, 2 hr)” value (from here on “2 hr plasma level-ng/mL”) was “D (D = greater than 1000 nM)”.
For `COc1cc(NC(=O)C(=O)c2c(C)n(Cc3ccc(Cl)cc3)c3cc(C)c(OC)cc23)ccn1` [Compound 74, 2-(1-(4-chlorobenzyl)-5-methoxy-2,6-dimethyl-1H-indol-3-yl)-N-(2-methoxypyridin-4-yl)-2-oxoacetamide], the “2 hr plasma level-ng/mL” value was “C (C = between 100 nM and 1000 nM)”.
Then `COc1cnc2c(c1)c(C(=O)C(=O)Nc1ccnc(OC)c1)c(C)n2Cc1ncc(Cl)cc1Cl` [Compound 29, 2-(1-((3,5-dichloropyridin-2-yl)methyl)-5-methoxy-2-methyl-1H-pyrrolo[2,3-b]pyridin-3-yl)-N-(2-methoxypyridin-4-yl)-2-oxoacetamide], with “D (D = greater than 1000 nM)”; and `COc1cc(NC(=O)C(=O)c2c(C)n(Cc3ccc(Cl)cc3)c3ncc(C)cc23)ccn1` [Compound 76, 2-(1-(4-chlorobenzyl)-2,5-dimethyl-1H-pyrrolo[2,3-b]pyridin-3-yl)-N-(2-methoxypyridin-4-yl)-2-oxoacetamide], with “C (C = between 100 nM and 1000 nM)”.
`COc1cc(NC(=O)C(=O)c2c(C)n(Cc3ccc(Cl)cc3)c3ccc(COC(C)=O)cc23)ccn1` [Compound 10, (1-(4-chlorobenzyl)-3-(2-(2-methoxypyridin-4-ylamino)-2-oxoacetyl)-2-methyl-1H-indol-5-yl)methyl acetate]: the “2 hr plasma level-ng/mL” value is “C (C = between 100 nM and 1000 nM)”.
Consider `COc1cc(NC(=O)C(=O)c2c(C)n(Cc3ccc(Cl)cc3)c3ccc(CO)cc23)ccn1` [Compound 8, 2-(1-(4-chlorobenzyl)-5-(hydroxymethyl)-2-methyl-1H-indol-3-yl)-N-(2-methoxypyridin-4-yl)-2-oxoacetamide], for which the “2 hr plasma level-ng/mL” value was “C (C = between 100 nM and 1000 nM)”.
Then `COc1cc(NC(=O)C(=O)c2c(C)n(Cc3ccc(Cl)cn3)c3ccc(N(C)C)cc23)ccn1` [Compound 66, 2-(1-((5-chloropyridin-2-yl)methyl)-5-(dimethylamino)-2-methyl-1H-indol-3-yl)-N-(2-methoxypyridin-4-yl)-2-oxoacetamide], with “D (D = greater than 1000 nM)”.
